Measured values reported in patent US20250127180A1, “PARTICLES COMPRISING DOUBLE STRANDED RNA AND USE OF SAME IN AGRICULTURE” (priority 2022, published 2025).

Tested on: B. cinerea
Test: In-vitro fungal growth, O.D at 600 nm
Format: cell-based, Botrytis cinerea
Experimental: To test the effect of commonly used fungicide on B. cinerea growth, ‘Procloraz’ (Sportak, Bayer Cropscience LLC, Monheim am Rhein, Germany) or ‘fludioxonil’ (scholar, Hod-Hasharon, Israel) fungicide were diluted in 1% SMB to final concentrations of 1-1000 ppb or 0.01-1,000 ppb, respectively.
The plates were incubated at room temperature and O.D measurement at 600 nm was taken every hour for 48-72 hours using Synergy LX plate reader (BioTek, Winooski, Vermont, United States). The absorbance of three wells of repeats was averaged together and was background-corrected by subtracting the average absorbance of media alone at time zero (Galsurker et al., 2020; Langvad, 1999). Growth inhibition percentage was calculated (O.D in control well−O.D in treatment well)/O.D in control well×100) (Meletiadis et al., 2003). Coefficient treatment interaction (CTI) was calculated as follows: CTI=AB/(A×B). AB is the ratio of the treatment combination to control; A, or B is the ratio of the single treatment to control. Coefficient treatment interaction is considered as synergistic when CTI<1 (Chen et al., 2014).

SMILES: N#Cc1c[nH]cc1-c1cccc2c1OC(F)(F)O2 [Fludioxonil]
- B. cinerea growth (0.01-1,000 ppb, data not shown): reduced B. cinerea growth in a non-linear manner

SMILES: CCCN(CCOc1c(Cl)cc(Cl)cc1Cl)C(=O)n1ccnc1 [Prochloraz, prochloraz]
- fungal growth (O.D) (1-1,000 ppb in growth media): dose-dependent reduction of fungal growth

SMILES: CC(C)[C@@H](C)/C=C/[C@@H](C)[C@H]1CC[C@H]2C3=CC=C4C[C@@H](O)CC[C@]4(C)[C@H]3CC[C@]12C [ergosterol]
- fungal growth (ergosterol added to control): did not alter fungal growth
